“And” between values parts separate entries of the source, which are not always exact repeats. Equal values may be shown once.
Tests used:
[1] = biological target: T1, rat adrenergic α1B receptor (Rattus norvegicus, UniProt P15823); test: Radioligand binding, adrenergic α1B ([3H]Prazosin); details: for Percentage inhibition of ligand binding, Adrenergic α1B (0.1 μM): compound at 0.1 μM; for Percentage inhibition of ligand binding, Adrenergic α1B (0.1 μM) / inhibition at 0.1 µM / inhibition at 0.03 µM: [3H]Prazosin, repeat datapoints each shown; for inhibition at 0.1 µM: read-out: Percentage inhibition of ligand binding, Adrenergic α1B (0.1 μM), compound at 0.1 μM; for inhibition at 0.03 µM: read-out: Percentage inhibition of ligand binding, Adrenergic α1B (0.03 μM), compound at 0.03 μM; for Percentage inhibition of ligand binding, Adrenergic α1B: 0.1 μM compound; for Percentage inhibition of ligand binding, Adrenergic α1B (0.1 μM) / Percentage inhibition of ligand binding, Adrenergic α1B: 0.1 µM
T1 construct: rat adrenergic α1B receptor obtained from Wistar Rat liver; from tissue; host or cells: Wistar rat liver
T1 sequence (P15823 1-515): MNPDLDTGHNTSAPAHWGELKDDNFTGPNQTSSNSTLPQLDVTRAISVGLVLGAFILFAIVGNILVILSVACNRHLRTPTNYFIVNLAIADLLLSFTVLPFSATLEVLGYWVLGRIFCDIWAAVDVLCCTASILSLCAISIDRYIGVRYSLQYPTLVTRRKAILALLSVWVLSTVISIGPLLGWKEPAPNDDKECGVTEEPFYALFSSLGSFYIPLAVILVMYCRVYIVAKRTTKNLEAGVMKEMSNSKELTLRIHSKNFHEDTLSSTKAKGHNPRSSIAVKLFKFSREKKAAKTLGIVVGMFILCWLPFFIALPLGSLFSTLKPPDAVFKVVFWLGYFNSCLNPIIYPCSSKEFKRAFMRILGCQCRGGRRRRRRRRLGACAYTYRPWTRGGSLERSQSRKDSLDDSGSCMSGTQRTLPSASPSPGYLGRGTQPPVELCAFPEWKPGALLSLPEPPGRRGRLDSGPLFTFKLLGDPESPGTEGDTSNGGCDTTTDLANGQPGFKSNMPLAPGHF
Method in brief: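 Rat α1B receptor from Wistar rat liver was incubated with 0.25 nM [3H]prazosin for 60 min at 25 °C in 50 mM Tris-HCl, pH 7.4, 0.5 mM EDTA. Non-specific binding was defined with 10 μM phentolamine. Bound radioligand was measured by filtration and counting, reported as percent inhibition of specific binding.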

[2] = biological target: T2, human recombinant adrenergic α2A receptor (Homo sapiens, UniProt P08913); test: Radioligand binding, adrenergic α2A ([3H]MK-912); details: for Percentage inhibition of ligand binding, Adrenergic α2A (0.1 μM): compound at 0.1 μM; for Percentage inhibition of ligand binding, Adrenergic α2A (0.1 μM) / inhibition at 0.1 µM / inhibition at 0.03 µM: [3H]MK-912, repeat datapoints each shown; for inhibition at 0.1 µM: read-out: Percentage inhibition of ligand binding, Adrenergic α2A (0.1 μM), compound at 0.1 μM; for inhibition at 0.03 µM: read-out: Percentage inhibition of ligand binding, Adrenergic α2A (0.03 μM), compound at 0.03 μM; for Percentage inhibition of ligand binding, Adrenergic α2A: 0.1 μM compound; for Percentage inhibition of ligand binding, Adrenergic α2A (0.1 μM) / Percentage inhibition of ligand binding, Adrenergic α2A: 0.1 µM
T2 construct: expressed in transfected cells; host or cells: insect Sf9 cells
T2 sequence (P08913 1-465): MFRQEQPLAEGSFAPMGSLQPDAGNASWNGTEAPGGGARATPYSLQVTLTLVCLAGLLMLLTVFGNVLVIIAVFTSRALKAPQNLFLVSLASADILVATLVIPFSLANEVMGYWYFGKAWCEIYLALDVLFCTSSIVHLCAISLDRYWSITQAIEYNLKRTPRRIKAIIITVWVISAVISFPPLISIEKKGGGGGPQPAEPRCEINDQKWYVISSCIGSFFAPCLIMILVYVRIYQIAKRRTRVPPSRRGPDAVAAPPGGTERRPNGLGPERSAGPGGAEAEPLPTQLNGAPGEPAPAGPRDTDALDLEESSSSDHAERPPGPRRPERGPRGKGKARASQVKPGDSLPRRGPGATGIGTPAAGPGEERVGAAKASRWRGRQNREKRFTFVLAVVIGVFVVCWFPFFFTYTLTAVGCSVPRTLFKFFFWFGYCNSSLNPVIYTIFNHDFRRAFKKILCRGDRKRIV
Method in brief: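 Receptor expressed in Sf9 cells, in 50 mM Tris-HCl pH 7.4, 12.5 mM MgCl2, 2 mM EDTA; compounds incubated with 1 nM [3H]MK-912 for 60 min at 25 °C.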

[3] = biological target: T3, human recombinant adrenergic α2B receptor (Homo sapiens, UniProt P18089); test: Radioligand binding, adrenergic α2B ([3H]Rauwolscine); details: for Percentage inhibition of ligand binding, Adrenergic α2B (0.03 μM): compound at 0.03 μM; for Percentage inhibition of ligand binding, Adrenergic α2B (0.03 μM) / inhibition at 0.1 µM / inhibition at 0.03 µM: [3H]Rauwolscine, repeat datapoints each shown; for Ki: read-out: Ki α2B; for inhibition at 0.1 µM: read-out: Percentage inhibition of ligand binding, Adrenergic α2B (0.1 μM), compound at 0.1 μM; for inhibition at 0.03 µM: read-out: Percentage inhibition of ligand binding, Adrenergic α2B (0.03 μM), compound at 0.03 μM; for Percentage inhibition of ligand binding, Adrenergic α2B: 0.03 μM compound; for Percentage inhibition of ligand binding, Adrenergic α2B (0.03 μM) / Percentage inhibition of ligand binding, Adrenergic α2B: 0.03 µM
T3 construct: expressed in transfected cells; host or cells: CHO-K1
T3 sequence (P18089 1-450): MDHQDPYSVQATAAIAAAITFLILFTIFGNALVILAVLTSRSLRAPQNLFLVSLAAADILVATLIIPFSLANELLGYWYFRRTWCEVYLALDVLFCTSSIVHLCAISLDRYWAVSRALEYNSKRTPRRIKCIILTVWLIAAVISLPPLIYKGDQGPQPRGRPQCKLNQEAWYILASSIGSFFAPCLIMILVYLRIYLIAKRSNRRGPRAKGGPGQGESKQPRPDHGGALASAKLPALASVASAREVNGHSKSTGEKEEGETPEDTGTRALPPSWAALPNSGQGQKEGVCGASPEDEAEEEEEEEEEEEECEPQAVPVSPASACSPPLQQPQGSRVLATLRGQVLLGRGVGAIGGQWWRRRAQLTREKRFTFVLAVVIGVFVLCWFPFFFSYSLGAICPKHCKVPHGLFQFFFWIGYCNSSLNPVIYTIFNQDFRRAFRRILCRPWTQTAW
Method in brief: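 Readout: percent inhibition of specific [3H]Rauwolscine binding, measured by filtration and counting. Conditions: CHO-K1 cell-expressed receptor, 2.5 nM radioligand, 60 min, 25° C, Tris-HCl pH 7.4 buffer with MgCl2, EDTA, BSA. Non-specific binding: 10 μM Prazosin.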

| SMILES | Percentage inhibition of ligand binding, Adrenergic α1B (0.1 μM) [1] | Percentage inhibition of ligand binding, Adrenergic α2A (0.1 μM) [2] | Percentage inhibition of ligand binding, Adrenergic α2B (0.03 μM) [3] | inhibition at 0.1 µM [1] | other results |
| --- | --- | --- | --- | --- | --- |
| CN1CCc2c(c3ccccc3n2CC(C)(O)c2cccnc2)C1 (single isomer, unassigned) [173b] | 8% | −2% | 28% |  |  |
| CN1CCc2c(c3cc(C(F)(F)F)ccc3n2CC(C)(O)c2cccnc2)C1 (single isomer, unassigned) [174a] |  | 22% | 62% and 71% | 13% | Ki [3]: 7.91 nM; inhibition at 0.1 µM [3]: 86% |
| CN1CCc2c(c3cc(C(F)(F)F)ccc3n2CC(C)(O)c2cccnc2)C1 (single isomer, unassigned) [174b] | 11% | 6% | 15% |  |  |
| CC(O)(Cn1c2c(c3cc(Cl)ccc31)CNCC2)c1cccnc1 (single isomer, unassigned) [175a] | 11% |  | 69% and 73% |  | inhibition at 0.1 µM [2]: 11%; Ki [3]: 4.42 nM; inhibition at 0.1 µM [3]: 90% |
| CC(O)(Cn1c2c(c3cc(Cl)ccc31)CNCC2)c1cccnc1 (single isomer, unassigned) [175b] | 4% | 7% | 4% |  |  |
| Cc1ccc2c(c1)c1c(n2CC(C)(O)c2cnccn2)CCN2CCCC12 (single isomer, unassigned) [176b] | 41% | 12% | 67% |  |  |
| Cc1ccc(C(O)Cn2c3c(c4cc(C)ccc42)CN(C)CC3)cc1 (single isomer, unassigned) [183b, 2-(1,2,3,4-tetrahydro-2,8-dimethylpyrido[4,3-b]indol-5-yl)-1-p-tolylethanol] |  | 97% |  | 93% | Ki [2]: 2.72 nM; inhibition at 0.03 µM [2]: 84%; inhibition at 0.1 µM [2]: 93%; inhibition at 0.03 µM [3]: 98% |
| C/C(=C\n1c2c(c3cc(C)ccc31)C1CCCN1CC2)c1ccc(C)nc1 (single isomer, unassigned) [193b, 10-methyl-7-(2-(6-methylpyridin-3-yl)prop-1-enyl)-2,3,5,6,7,11c-hexahydro-1H-indolizino[7,8-b]indole] |  |  |  | 91% | inhibition at 0.1 µM [2]: 83%; inhibition at 0.03 µM [3]: 104% |
| C/C(=C\n1c2c(c3cc(C)ccc31)C1CCCN1CC2)c1ccc(F)cc1 (single isomer, unassigned) [194b, 7-(2-(4-fluorophenyl)prop-1-enyl)-10-methyl-2,3,5,6,7,11c-hexahydro-1H-indolizino[7,8-b]indole] |  |  |  | 100% | inhibition at 0.1 µM [2]: 94%; inhibition at 0.03 µM [3]: 103% |
| Cc1ccc2c(c1)c1c(n2CC(C)(O)c2ccc(C)nc2)CN(C)CC1 (single isomer, unassigned) [196a] |  | 71% | 103% | 54.6% | inhibition at 0.03 µM [1]: 30%; Ki [2]: 16.8 nM; inhibition at 0.03 µM [2]: 37%; inhibition at 0.1 µM [2]: 58%; Ki [3]: 1.83 nM; inhibition at 0.03 µM [3]: 93% |
| Cc1ccc2c(c1)c1c(n2CCc2ccc(C)nc2)CCN2CCCC12 (single isomer, unassigned) [197b, 9-methyl-6-[2-(6-methyl-pyridin-3-yl)-ethyl]-2,3,4,5,6,10c-hexahydro-1H-3a, 6-diaza-cyclopenta[c]fluorene] |  | 56% and 77% | 105% | 96% | inhibition at 0.03 µM [1]: 89%; Ki [2]: 11.9 nM; inhibition at 0.03 µM [2]: 50%; Ki [3]: 0.78 nM; inhibition at 0.03 µM [3]: 101% |
| Cc1ccc2c(c1)c1c(n2CC(O)c2ccc(C)nc2)CCN2CCCC12 (single isomer, unassigned) [198a, 2-(9-methyl-1,2,3,4,5,10c-hexahydro-3a,6-diaza-cyclopenta[c]fluoren-6-yl)-1-(6-methyl-pyridin-3-yl)-ethanol] | 24% | 10% | 47% |  |  |
| Cc1ccc2c(c1)c1c(n2CC(O)c2ccc(C)nc2)CCN2CCCC12 (single isomer, unassigned) [198b, 2-(9-methyl-1,2,3,4,5,10c-hexahydro-3a,6-diaza-cyclopenta[c]fluoren-6-yl)-1-(6-methyl-pyridin-3-yl)-ethanol] | 84% | 44% | 103% |  |  |
| CCN1CCc2c(c3cc(C)ccc3n2CC(O)c2ccc(C)cc2)C1 (single isomer, unassigned) [203a] | 76% | 71% | 36% |  |  |
| CCN1CCc2c(c3cc(C)ccc3n2CC(O)c2ccc(C)cc2)C1 (single isomer, unassigned) [203b] | 47% | 31% | 24% |  |  |
| CC(=O)NC(Cn1c2c(c3cc(C)ccc31)CN(C)CC2)c1ccncc1 (single isomer, unassigned) [II-1a, N-(2-(1,2,3,4-tetrahydro-2,8-dimethylpyrido[4,3-b]indol-5-yl)-1-(pyridin-4-yl)ethyl)acetamide] |  |  |  |  | Percentage inhibition of ligand binding, Adrenergic α1B [1]: 6%; Percentage inhibition of ligand binding, Adrenergic α2A [2]: 15%; Percentage inhibition of ligand binding, Adrenergic α2B [3]: 14% |
| CC(=O)NC(Cn1c2c(c3cc(C)ccc31)CN(C)CC2)c1ccncc1 (single isomer, unassigned) [II-1b, N-(2-(1,2,3,4-tetrahydro-2,8-dimethylpyrido[4,3-b]indol-5-yl)-1-(pyridin-4-yl)ethyl)acetamide] |  |  |  |  | Percentage inhibition of ligand binding, Adrenergic α1B [1]: −7%; Percentage inhibition of ligand binding, Adrenergic α2A [2]: 1%; Percentage inhibition of ligand binding, Adrenergic α2B [3]: 32% |
